Values of other authors, collected in US20180271812A1, “CALCIUM BASED CLINICAL MATERIAL WITH ANTIMICROBIAL PROPERTIES AND METHOD OF FORMING FOR PREVENTION OR TREATMENT OF INFECTION” (Biocomposites Limited, priority 2017, published 2018).
Read-outs that look alike come from different tables or passages of the source.

Experiments:
Staphylococcus aureus = details: breakpoint, EUCAST clinical breakpoints v7.0 (Jan 2017)
Pseudomonas aeruginosa = details: breakpoint
[1] = background statement, no test described
[2] = American Society for Microbiology Kirby-Bauer disk diffusion susceptibility test protocol
[3] = EUCAST clinical breakpoints v7.0 (Jan 2017)

Row | Molecule | ZOI against Staphylococcus aureus, Resistant (Staphylococcus aureus) [mm] | ZOI against Staphylococcus aureus, Susceptible (Staphylococcus aureus) [mm] | ZOI against Pseudomonas aeruginosa, Resistant (Pseudomonas aeruginosa; [2]) [mm] | ZOI against Pseudomonas aeruginosa, Susceptible (Pseudomonas aeruginosa; [2]) [mm] | ZOI against Pseudomonas aeruginosa, Resistant (Pseudomonas aeruginosa; [3]) [mm] | ZOI against Pseudomonas aeruginosa, Susceptible (Pseudomonas aeruginosa; [3]) [mm] | pH [1]
1 | NC[C@H]1O[C@H](O[C@H]2[C@H](O)[C@@H](O[C@H]3O[C@H](CO)[C@@H](O)[C@H](N)[C@H]3O)[C@H](N)C[C@@H]2N)[C@H](N)C[C@@H]1O [Tobramycin] | <18 | ≥18 | ≤12 | ≥15 | <16 | ≥16 | –
2 | CN(C)c1cc(NC(=O)CNC(C)(C)C)c(O)c2c1C[C@H]1C[C@H]3[C@H](N(C)C)C(O)=C(C(N)=O)C(=O)[C@@]3(O)C(O)=C1C2=O [Tigecycline] | <18 | ≥18 | – | – | – | – | –
3 | Gentamicin | <18 | ≥18 | ≤12 | ≥15 | <15 | ≥15 | –
4 | NCC[C@H](O)C(=O)N[C@@H]1C[C@H](N)[C@@H](O[C@H]2O[C@H](CN)[C@@H](O)[C@H](O)[C@H]2O)[C@H](O)[C@H]1O[C@H]1O[C@H](CO)[C@@H](O)[C@H](N)[C@H]1O [Amikacin] | <16 | ≥18 | – | – | – | – | –
5 | C/C=C/C=C/C(=O)O [Sorbic acid] | – | – | – | – | – | – | 4.76
